In US12357631B2 (priority 2018, dated 2025):

These molecules were tested against PB2 (Influenza A virus, UniProt P03428) (assay: biochemical).
Type: binding

Chain of PB2 (P03428 whole entry, looked up): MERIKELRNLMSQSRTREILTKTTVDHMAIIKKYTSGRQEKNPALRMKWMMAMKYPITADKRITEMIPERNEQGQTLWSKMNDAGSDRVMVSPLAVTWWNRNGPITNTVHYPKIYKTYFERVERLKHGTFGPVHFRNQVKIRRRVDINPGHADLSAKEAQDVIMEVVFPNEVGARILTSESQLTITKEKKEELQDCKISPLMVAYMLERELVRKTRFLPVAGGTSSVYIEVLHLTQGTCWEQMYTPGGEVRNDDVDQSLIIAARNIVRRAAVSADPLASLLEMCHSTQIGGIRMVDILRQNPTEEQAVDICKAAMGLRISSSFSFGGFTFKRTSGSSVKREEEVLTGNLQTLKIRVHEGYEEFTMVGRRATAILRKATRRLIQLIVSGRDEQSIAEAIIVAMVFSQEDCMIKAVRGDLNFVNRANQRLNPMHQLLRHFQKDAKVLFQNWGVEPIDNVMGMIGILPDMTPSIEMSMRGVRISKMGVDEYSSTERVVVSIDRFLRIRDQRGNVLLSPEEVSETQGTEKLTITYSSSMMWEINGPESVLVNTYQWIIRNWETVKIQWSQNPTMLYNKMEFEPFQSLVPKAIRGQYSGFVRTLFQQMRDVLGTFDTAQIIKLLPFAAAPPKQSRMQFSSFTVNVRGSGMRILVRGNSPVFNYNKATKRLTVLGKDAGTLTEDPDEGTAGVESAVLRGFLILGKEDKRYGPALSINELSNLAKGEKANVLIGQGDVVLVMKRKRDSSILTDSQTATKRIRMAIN

Row | SMILES | EC50
1 | CCCCCCCCCCC(=O)N[C@@H]1CCC[C@H](Nc2nc(-c3c[nH]c4ncc(F)cc34)ncc2F)C1 [Compound A271] | 50 to 100 µM
2 | CCOc1ccc(C(C)NC(=O)OCc2ccnc(C(=O)N[C@H]3CCC[C@@H](Nc4nc(-c5c[nH]c6ncc(F)cc56)ncc4F)C3)c2)cc1 (stereo partly shown) [Compound A145] | > 100 µM
3 | CCOCCOCCCCCNC(=O)N[C@@H]1CCC[C@H](Nc2nc(-c3c[nH]c4ncc(F)cc34)ncc2F)C1 [Compound A180] | > 100 µM
4 | CCOCCOCCOCCNC(=O)N(CCCc1ccccc1)[C@@H]1CCC[C@H](Nc2nc(-c3c[nH]c4ncc(F)cc34)ncc2F)C1 [Compound B3] | 50 to 100 µM
5 | O=C(O)CCC(=O)N1CCC[C@H](Nc2nc(-c3c[nH]c4ncc(F)cc34)ncc2F)C1 [Compound C5] | < 5 µM
6 | O=C(O)CCOCCOCCOCCNC(=O)N[C@H]1CCC[C@@H](Nc2nc(-c3c[nH]c4ncc(F)cc34)ncc2F)C1 [Compound A172] | 5 to 25 µM
7 | O=C(NCc1ccccc1)OCc1ccnc(C(=O)N[C@@H]2CCC[C@H](Nc3nc(-c4c[nH]c5ncc(F)cc45)ncc3F)C2)c1 [Compound A91] | > 100 µM
8 | CCOCCOCc1cccc(CN(C)C(=O)N[C@@H]2CCC[C@H](Nc3nc(-c4c[nH]c5ncc(F)cc45)ncc3F)C2)c1 [Compound A204] | > 100 µM
9 | CCOCCOCCCCCN(CC)C(=O)N[C@H]1CCC[C@@H](Nc2nc(-c3c[nH]c4ncc(F)cc34)ncc2F)C1 [Compound A203] | > 100 µM
10 | CCOCCOCCCCCN(C(=O)N[C@H]1CCC[C@@H](Nc2nc(-c3c[nH]c4ncc(F)cc34)ncc2F)C1)C(C)C [Compound A214] | > 100 µM
11 | O=C(N[C@H]1CCC[C@@H](Nc2nc(-c3c[nH]c4ncc(F)cc34)ncc2F)C1)c1cncc(F)c1 [Compound A57] | 5 to 25 µM
12 | Cc1cncc(C(=O)N[C@@H]2CCC[C@H](Nc3nc(-c4c[nH]c5ncc(F)cc45)ncc3F)C2)c1 [Compound A64] | < 5 µM
13 | C[C@H](NC(=O)OCc1ccnc(C(=O)N[C@@H]2CCC[C@H](Nc3nc(-c4c[nH]c5ncc(F)cc45)ncc3F)C2)c1)C(=O)O [Compound A134] | < 5 µM
14 | CN(CCOCCOCCOCCO)C(=O)N[C@@H]1CCC[C@H](Nc2nc(-c3c[nH]c4ncc(F)cc34)ncc2F)C1 [Compound A169] | 50 to 100 µM
15 | O=C(NCc1ccc(Oc2ccccc2)cc1)OCc1ccnc(C(=O)N[C@H]2CCC[C@@H](Nc3nc(-c4c[nH]c5ncc(F)cc45)ncc3F)C2)c1 [Compound A102] | > 100 µM
16 | CCOCCCCCCCCN(C)C(=O)N[C@H]1CCC[C@@H](Nc2nc(-c3c[nH]c4ncc(F)cc34)ncc2F)C1 [Compound A211] | > 100 µM
17 | CCOCCOCCOCCN(Cc1ccccc1)C(=O)N[C@@H]1CCC[C@H](Nc2nc(-c3c[nH]c4ncc(F)cc34)ncc2F)C1 [Compound A176] | > 100 µM
18 | CCOCCOCCCCCNC(=O)N(C)[C@H]1CCC[C@@H](Nc2nc(-c3c[nH]c4ncc(F)cc34)ncc2F)C1 [Compound A219] | 25 to 50 µM
19 | O=C(O)CCOCCOCCOCC(=O)N[C@H]1CCC[C@@H](Nc2nc(-c3c[nH]c4ncc(F)cc34)ncc2F)C1 [Compound A268] | < 5 µM
20 | O=C(O)CCCN1CCC[C@H](Nc2nc(-c3c[nH]c4ncc(F)cc34)ncc2F)C1 [Compound C7] | 5 to 25 µM
21 | CCCOCCCCCCCN(C)C(=O)N[C@@H]1CCC[C@H](Nc2nc(-c3c[nH]c4ncc(F)cc34)ncc2F)C1 [Compound A236] | 50 to 100 µM
22 | CCOCCOCCCCCN(CC(=O)N(C)C)C(=O)N[C@@H]1CCC[C@H](Nc2nc(-c3c[nH]c4ncc(F)cc34)ncc2F)C1 [Compound B7] | 25 to 50 µM
23 | CCCCc1ccc(C(=O)N[C@@H]2CCC[C@H](Nc3nc(-c4c[nH]c5ncc(F)cc45)ncc3F)C2)nc1 [Compound A58] | 50 to 100 µM
24 | CCCCOCCCCc1ccnc(C(=O)N[C@H]2CCC[C@@H](Nc3nc(-c4c[nH]c5ncc(F)cc45)ncc3F)C2)c1 [Compound A31] | > 100 µM
25 | CCOCCOCCCCCN(Cc1cncnc1)C(=O)N[C@H]1CCC[C@@H](Nc2nc(-c3c[nH]c4ncc(F)cc34)ncc2F)C1 [Compound A209] | > 100 µM
